From patent publication US6242440A, “Synergistic compositions comprising an oxathiazine and a benzothiophene-2-carboxamide-S,S-dioxide” (Janssen Pharmaceutica N.V., priority 1997, dated 2001)

What was measured:
Aureobasidium = assay: wood stick test (Scots Pine); assay type: cell-based, Aureobasidium pullulans; settings: read-out: measured (relative) activity %
Procedure: (§1) Oven-dried wood sticks (50×12×2 mm) of Scots Pine (Pinus sylvestris) were dipped during 3 hours in a methanol solution comprising a compound of formula (I), a compound of formula (II), or a combination of a compound of formula (I) and a compound of formula (II), and allowed to dry overnight in a sterile laminar air flow. In each Petri dish one stick was placed on culture medium, PDA PS (Potato Dextrose Agar containing 60 mg penicillin and 200 mg streptomycin), previously seeded with inoculum. Two drops of fungal or spore suspension were pipetted on the upper surface of the stick The Petri dishes were incubated at 22° C. and 70% relative humidity. The test was evaluated after sufficient growth of the fungus on the control sticks. The following score system was used:
(§2) 0: sticks free of fungal growth
(§3) 1: traces of growth on the stick
(§4) 2: slight growth (5 to 25% of the surface covered)
(§5) 3 : moderate growth (25 to 50% of the surface covered)
(§6) 4: vigorous to maximum growth (more tha 50% covered)
(§7) To calculate synergism results were converted to the next artificial activities:
(§8) Yhe expected activities E were calculated by using the so-called formula of Colby: (Colby, S. R. Weeds 1967, 15: 20-22), [formula]
(§9) wherein X and Y express the relative activities obtained for each of the active ingredients. A synergistic effect can be acknowledged if the found activity exceeds calculated activity.
(§10) The compound of formula (I) used in the experiment was 3-benzo[b]-thien-2-yl)-5,6-dihydro-1,4,2-oxathiazine 4-oxide, i.e. compound (1). The compound of formula (II) used in the experiment was N-cyclohexyl-benzothiophene-2-carboxamide-S,S-dioxide, i.e. compound (2).

Aspergillus niger = assay: poison plate assay, mycelial growth and sporulation; assay type: cell-based
Procedure: (§11) The efficacy of the active ingredients against mycelial growth and sporulation of Aureobasidium pullulans, Aspergillus niger, Scierophoma entoxylina, Trichodenna viride, was determined in the poison plate assay. The required concentrations of the fungicide(s) were obtained by diluting the active ingredients (I), (II) or the combination of (I) and (II) in dimethyl sulfoxide (DMSO) at 800 times the final test concentration. The stock solutions in DMSO were pipetted into Petri-dishes. Malt extract agar (3%) was added aseptically and uniform distribution was obtained by shaking. Each plate was spot inoculated with a spore or mycelial suspension. After incubation at 22° C. and 70% relative humidity for a period long enough to allow complete growth of controls, diameters of colonies were measured. Relative activities were calculated by taking the absence of fungal growth (diameter 0 mm) as 100%. From the activity of the active ingredients alone, the expected activities E were calculated by using the so-called formula of Colby: (Colby, S. R. Weeds 1967, 15: 20-22), [formula]
as §9
(§12) Equal efficacy was observed whenever complete inhibition of fungal growth occurred by one of the active ingredients (I) or (II) alone. The compound of formula (I) used in the experiment was 3-benzo[b]-thien-2-yl)-5,6-dihydro-1,4,2-oxathiazine 4-oxide, i.e. compound (1). The compound of formula (II) used in the experiment was N-cyclohexyl-benzothiophene-2-carboxamide-S,S-dioxide, i.e. compound (2).

Trichoderma viride = assay: as above; assay type: cell-based
Procedure: as §11, §9, §12

Sclerophoma entoxylina = assay: as above; assay type: cell-based
Procedure: as §11, §9, §12

Aureobasidium pullulans = assay: as above; assay type: cell-based
Procedure: as §11, §9, §12

Sclerophoma = assay: wood stick test (Scots Pine); assay type: cell-based, Sclerophoma entoxylina
Procedure: as §1, §2, §3, §4, §5, §6, §7, §8, §9, §10

Aspergillus = assay: wood stick test (Scots Pine); assay type: cell-based, Aspergillus niger
Procedure: as §1, §2, §3, §4, §5, §6, §7, §8, §9, §10

O=C(NC1CCCCC1)C1=Cc2ccccc2S1(=O)=O [compound (2), N-cyclohexyl-benzothiophene-2-carboxamide-S,S-dioxide]
activity at 200 ppm (Aureobasidium; (2) 200 ppm): 0%
activity at 400 ppm (Aureobasidium; (2) 400 ppm): 75%
activity at 800 ppm (Aureobasidium; (2) 800 ppm): 95%
activity measured (Aspergillus niger; Exp 1, 5 days, (2) 2.5 mg/l): 0%
growth (Aspergillus niger; Exp 1, 5 days, (2) 2.5 mg/l): 44 mm
activity measured (Aspergillus niger; Exp 1, 5 days, (2) 5 mg/l): 5%
growth (Aspergillus niger; Exp 1, 5 days, (2) 5 mg/l): 42 mm
activity measured (Aspergillus niger; Exp 1, 5 days, (2) 10 mg/l): 23%
growth (Aspergillus niger; Exp 1, 5 days, (2) 10 mg/l): 34 mm
activity measured (Aspergillus niger; Exp 1, 5 days, (2) 20 mg/l): 70%
growth (Aspergillus niger; Exp 1, 5 days, (2) 20 mg/l): 13 mm
activity measured (Aspergillus niger; Exp 2, 7 days, (2) 2.5 mg/l): 2%
growth (Aspergillus niger; Exp 2, 7 days, (2) 2.5 mg/l): 44 mm
activity measured (Aspergillus niger; Exp 2, 7 days, (2) 5 mg/l): 2%
growth (Aspergillus niger; Exp 2, 7 days, (2) 5 mg/l): 44 mm
activity measured (Aspergillus niger; Exp 2, 7 days, (2) 10 mg/l): 9%
growth (Aspergillus niger; Exp 2, 7 days, (2) 10 mg/l): 41 mm
activity measured (Aspergillus niger; Exp 2, 7 days, (2) 20 mg/l): 36%
growth (Aspergillus niger; Exp 2, 7 days, (2) 20 mg/l): 29 mm
activity measured (Trichoderma viride; Exp 1, 5 days, (2) 2.5 mg/l): 0%
growth (Trichoderma viride; Exp 1, 5 days, (2) 2.5 mg/l): 49 mm
activity measured (Trichoderma viride; Exp 1, 5 days, (2) 5 mg/l): 0%
growth (Trichoderma viride; Exp 1, 5 days, (2) 5 mg/l): 49 mm
activity measured (Trichoderma viride; Exp 1, 5 days, (2) 10 mg/l): 0%
growth (Trichoderma viride; Exp 1, 5 days, (2) 10 mg/l): 49 mm
activity measured (Trichoderma viride; Exp 1, 5 days, (2) 20 mg/l): 14%
growth (Trichoderma viride; Exp 1, 5 days, (2) 20 mg/l): 42 mm
activity measured (Trichoderma viride; Exp 2, 7 days, (2) 2.5 mg/l): 0%
growth (Trichoderma viride; Exp 2, 7 days, (2) 2.5 mg/l): 49 mm
activity measured (Trichoderma viride; Exp 2, 7 days, (2) 5 mg/l): 0%
growth (Trichoderma viride; Exp 2, 7 days, (2) 5 mg/l): 49 mm
activity measured (Trichoderma viride; Exp 2, 7 days, (2) 10 mg/l): 8%
growth (Trichoderma viride; Exp 2, 7 days, (2) 10 mg/l): 45 mm
activity measured (Trichoderma viride; Exp 2, 7 days, (2) 20 mg/l): 24%
growth (Trichoderma viride; Exp 2, 7 days, (2) 20 mg/l): 37 mm
activity measured (Sclerophoma entoxylina; Exp 1, 5 days, (2) 2.5 mg/l): 7%
growth (Sclerophoma entoxylina; Exp 1, 5 days, (2) 2.5 mg/l): 40 mm
activity measured (Sclerophoma entoxylina; Exp 1, 5 days, (2) 5 mg/l): 16%
growth (Sclerophoma entoxylina; Exp 1, 5 days, (2) 5 mg/l): 36 mm
activity measured (Sclerophoma entoxylina; Exp 1, 5 days, (2) 10 mg/l): 19%
growth (Sclerophoma entoxylina; Exp 1, 5 days, (2) 10 mg/l): 35 mm
activity measured (Sclerophoma entoxylina; Exp 1, 5 days, (2) 20 mg/l): 40%
growth (Sclerophoma entoxylina; Exp 1, 5 days, (2) 20 mg/l): 26 mm
activity measured (Sclerophoma entoxylina; Exp 2, 7 days, (2) 2.5 mg/l): 2%
growth (Sclerophoma entoxylina; Exp 2, 7 days, (2) 2.5 mg/l): 48 mm
activity measured (Sclerophoma entoxylina; Exp 2, 7 days, (2) 5 mg/l): 4%
growth (Sclerophoma entoxylina; Exp 2, 7 days, (2) 5 mg/l): 47 mm
activity measured (Sclerophoma entoxylina; Exp 2, 7 days, (2) 10 mg/l): 16%
growth (Sclerophoma entoxylina; Exp 2, 7 days, (2) 10 mg/l): 41 mm
activity measured (Sclerophoma entoxylina; Exp 2, 7 days, (2) 20 mg/l): 29%
growth (Sclerophoma entoxylina; Exp 2, 7 days, (2) 20 mg/l): 35 mm
activity measured (Aureobasidium pullulans; Exp 1, 5 days, (2) 2.5 mg/l): 8%
growth (Aureobasidium pullulans; Exp 1, 5 days, (2) 2.5 mg/l): 35 mm
activity measured (Aureobasidium pullulans; Exp 1, 5 days, (2) 5 mg/l): 16%
growth (Aureobasidium pullulans; Exp 1, 5 days, (2) 5 mg/l): 32 mm
activity measured (Aureobasidium pullulans; Exp 1, 5 days, (2) 10 mg/l): 37%
growth (Aureobasidium pullulans; Exp 1, 5 days, (2) 10 mg/l): 24 mm
activity measured (Aureobasidium pullulans; Exp 1, 5 days, (2) 20 mg/l): 53%
growth (Aureobasidium pullulans; Exp 1, 5 days, (2) 20 mg/l): 18 mm
activity measured (Aureobasidium pullulans; Exp 2, 7 days, (2) 2.5 mg/l): 2%
growth (Aureobasidium pullulans; Exp 2, 7 days, (2) 2.5 mg/l): 47 mm
activity measured (Aureobasidium pullulans; Exp 2, 7 days, (2) 5 mg/l): 6%
growth (Aureobasidium pullulans; Exp 2, 7 days, (2) 5 mg/l): 45 mm
activity measured (Aureobasidium pullulans; Exp 2, 7 days, (2) 10 mg/l): 8%
growth (Aureobasidium pullulans; Exp 2, 7 days, (2) 10 mg/l): 44 mm
activity measured (Aureobasidium pullulans; Exp 2, 7 days, (2) 20 mg/l): 23%
growth (Aureobasidium pullulans; Exp 2, 7 days, (2) 20 mg/l): 37 mm
% overgrown of the sticks (Sclerophoma; (2) 200 ppm): 100%
stick test scores (Sclerophoma; (2) 200 ppm): 4 (vigorous to maximum growth (more tha 50% covered))
% overgrown of the sticks (Sclerophoma; (2) 400 ppm): 100%
stick test scores (Sclerophoma; (2) 400 ppm): 4 (vigorous to maximum growth (more tha 50% covered))
% overgrown of the sticks (Sclerophoma; (2) 800 ppm): 25%
stick test scores (Sclerophoma; (2) 800 ppm): 2 (slight growth (5 to 25% of the surface covered))
activity at 200 ppm (Sclerophoma; Sclerophoma entoxylina, (2) 200 ppm, read-out: measured (relative) activity %): 0%
activity at 400 ppm (Sclerophoma; Sclerophoma entoxylina, (2) 400 ppm, read-out: measured (relative) activity %): 0%
activity at 800 ppm (Sclerophoma; Sclerophoma entoxylina, (2) 800 ppm, read-out: measured (relative) activity %): 75%
% overgrown of the sticks (Aspergillus; (2) 200 ppm): 100%
stick test scores (Aspergillus; (2) 200 ppm): 4 (vigorous to maximum growth (more tha 50% covered))
% overgrown of the sticks (Aspergillus; (2) 400 ppm): 100%
stick test scores (Aspergillus; (2) 400 ppm): 4 (vigorous to maximum growth (more tha 50% covered))
% overgrown of the sticks (Aspergillus; (2) 800 ppm): 100%
stick test scores (Aspergillus; (2) 800 ppm): 4 (vigorous to maximum growth (more tha 50% covered))
activity at 200 ppm (Aspergillus; Aspergillus, (2) 200 ppm, read-out: measured (relative) activity %): 0%
activity at 400 ppm (Aspergillus; Aspergillus, (2) 400 ppm, read-out: measured (relative) activity %): 0%
activity at 800 ppm (Aspergillus; Aspergillus, (2) 800 ppm, read-out: measured (relative) activity %): 0%
